Test results taken from patent US12221448B2, “Selective PI3Kδ inhibitor and use thereof” (TARAPEUTICS SCIENCE INC., priority 2018, dated 2025).

Key:
[1] = target: T1, PI3Kβ (Homo sapiens, UniProt P42338); assay: In vitro enzyme activity (ADP-Glo) against PI3Kβ; assay type: biochemical; conditions: Table 2; ATP 10 μM, PIP2:PS 50 μM; read-out: IC50 against PI3Kβ
T1 construct: purchased sigma (US)
Method: (§1) In vitro enzyme activity experiments were performed to determine the IC50 values of the compounds against PI3K family type I kinases (PI3Kα, PI3Kβ, PI3Kγ, PI3Kδ) and type II kinases (PIK3C2A, PIK3C2B). Protein kinases PI3Kα, PI3Kγ, PI3Kδ, PIK3C2A, and PIK3C2B were all purchased from Invitrogen (US); protein kinase PI3Kβ was purchased from sigma (US); the three substrates PIP2: PS, PI and PI: PS were purchased from Invitrogen (US).
(§2) Protein kinases diluted to a certain concentration, i.e., PI3Kα 5.4 μL (with a final concentration of 0.16 ng/μL), PI3Kβ 5.4 μL (with a final concentration of 6 ng/μL), PI3Kδ 5.4 μL (with a final concentration of 1 ng/μL), PI3Kγ 5.4 μL (with a final concentration of 5 ng/μL), PIK3C2A 5.4 μL (with a final concentration of 5 ng/μL), and PIK3C2B 5.4 μL (with a final concentration of 10 ng/μL) were respectively reacted with 1 μL of the serially diluted drug compounds for 1 hour at room temperature (final drug concentrations were 10 μM, 1 μM, 0.3 μM, 0.1 μM, 0.03 μM, 0.01 μM, 0.003 μM, and 0.001 μM, respectively).
(§3) To each reaction tube of the above PI3K family type I kinases, 6 μL of a mixture of ATP (Promega, US) and substrate PIP2:PS (final concentrations of ATP in the reaction systems of kinases PI3Kα, and PI3Kβ were 10 μM, and final concentrations of ATP in the reaction systems of kinases PI3Kδ, and PI3Kγ were 50 μM, and final concentrations of the substrate PIP2:PS were all 50 μM) was added, and reacted at 37° C. for 1 hour. The reaction buffer was 50 mM Hepes (pH 7.5) (Promega, USA), 3 mM MgCl2, 1 mM EGTA (Promega, US), 100 mM NaCl, 0.03% CHAPS (Promega, US).
(§4) 5 μL of kinase solution after reaction was placed in a 384-well plate (Corning, US), and 5 μL of ADP-Glo™ reagent (Promega, US) was added thereto and reacted at room temperature for 40 minutes to stop the kinase reaction and exhaust the remaining ATP; 10 μL of kinase detection reagent was added to convert ADP into ATP, and coupled luciferase/luciferin reaction was utilized to detect the newly synthesized ATP. Envision was utilized for readout and plotting, and Graphpad IC50 value was calculated.

[2] = target: T2, PI3Kδ (Homo sapiens, UniProt O00329); assay: In vitro enzyme activity (ADP-Glo) against PI3Kδ; assay type: biochemical; conditions: Table 2; ATP 50 μM, PIP2:PS 50 μM
T2 construct: purchased Invitrogen (US)
Method: as §1, §2, §3, §4

[3] = target: T3, PI3Kγ (Homo sapiens, UniProt P48736); assay: In vitro enzyme activity (ADP-Glo) against PI3Kγ; assay type: biochemical; conditions: Table 2; ATP 50 μM, PIP2:PS 50 μM; read-out: IC50 against PI3Kγ
T3 construct: purchased Invitrogen (US)
Method: as §1, §2, §3, §4

[4] = target: T4, PI3Kα (Homo sapiens, UniProt P42336); assay: In vitro enzyme activity (ADP-Glo) against PI3Kα; assay type: biochemical; conditions: Table 2; ATP 10 μM, PIP2:PS 50 μM
T4 construct: purchased Invitrogen (US)
Method: as §1, §2, §3, §4

[5] = tested on: rat model of adjuvant arthritis; assay: Efficacy in rat model of rheumatoid arthritis (adjuvant arthritis); assay type: in vivo, Sprague-Dawley (SD) rats; conditions: 25 mg/kg/day, oral gavage, once a day
Method: In this example, the experimental results of Compound 9 were tested in a rat model of adjuvant arthritis.
(1) Sprague-Dawley (SD) rats, female, weighing 180 g±20 g, were purchased from Beijing Vital River Laboratory Animal Technology Co., Ltd. and maintained in an SPL laboratory. Drinking water and litter were sterilized by autoclaving, and all operations related to the rats were performed under sterile conditions.
(2) In the vehicle group and the treatment group, 10.0 mg/ml CFA (complete Freund's adjuvant, purchased from Sigma, US) was mixed thoroughly, and 0.1 ml of the CFA was injected intracutaneously into the right rear vola pedis of each rat on day 0 to induce inflammation; the normal group was injected with saline in the same way.
(3) Body weight and paw swelling were measured every 3 or 4 days after modeling. […]
(4) The body weight and paw swelling were measured every two days after administration, and the paw swelling was measured with a paw swelling meter. […] After the inflammation, the volume of left rear foot was measured to obtain the swelling degree of the secondary paw (Δm1=|paw volume after injection−paw volume before injection|).

[6] = target: T5, PIK3C2A (Homo sapiens, UniProt O00443); assay: In vitro enzyme activity (ADP-Glo) against PIK3C2A; assay type: biochemical; conditions: Table 3; ATP 50 μM, substrate PI 100 μM; read-out: IC50 PI3KC2A
T5 construct: purchased Invitrogen (US)
Method: as §1, with “(US). […]” for “(US).”
as §4

[7] = target: T6, PIK3C2B (Homo sapiens, UniProt O00750); assay: In vitro enzyme activity (ADP-Glo) against PIK3C2B; assay type: biochemical; conditions: Table 3; ATP 50 μM, substrate PI 100 μM; read-out: IC50 PI3KC2B
T6 construct: purchased Invitrogen (US)
Method: as §1, with “(US). […]” for “(US).”
as §4

T1 sequence (P42338 whole entry): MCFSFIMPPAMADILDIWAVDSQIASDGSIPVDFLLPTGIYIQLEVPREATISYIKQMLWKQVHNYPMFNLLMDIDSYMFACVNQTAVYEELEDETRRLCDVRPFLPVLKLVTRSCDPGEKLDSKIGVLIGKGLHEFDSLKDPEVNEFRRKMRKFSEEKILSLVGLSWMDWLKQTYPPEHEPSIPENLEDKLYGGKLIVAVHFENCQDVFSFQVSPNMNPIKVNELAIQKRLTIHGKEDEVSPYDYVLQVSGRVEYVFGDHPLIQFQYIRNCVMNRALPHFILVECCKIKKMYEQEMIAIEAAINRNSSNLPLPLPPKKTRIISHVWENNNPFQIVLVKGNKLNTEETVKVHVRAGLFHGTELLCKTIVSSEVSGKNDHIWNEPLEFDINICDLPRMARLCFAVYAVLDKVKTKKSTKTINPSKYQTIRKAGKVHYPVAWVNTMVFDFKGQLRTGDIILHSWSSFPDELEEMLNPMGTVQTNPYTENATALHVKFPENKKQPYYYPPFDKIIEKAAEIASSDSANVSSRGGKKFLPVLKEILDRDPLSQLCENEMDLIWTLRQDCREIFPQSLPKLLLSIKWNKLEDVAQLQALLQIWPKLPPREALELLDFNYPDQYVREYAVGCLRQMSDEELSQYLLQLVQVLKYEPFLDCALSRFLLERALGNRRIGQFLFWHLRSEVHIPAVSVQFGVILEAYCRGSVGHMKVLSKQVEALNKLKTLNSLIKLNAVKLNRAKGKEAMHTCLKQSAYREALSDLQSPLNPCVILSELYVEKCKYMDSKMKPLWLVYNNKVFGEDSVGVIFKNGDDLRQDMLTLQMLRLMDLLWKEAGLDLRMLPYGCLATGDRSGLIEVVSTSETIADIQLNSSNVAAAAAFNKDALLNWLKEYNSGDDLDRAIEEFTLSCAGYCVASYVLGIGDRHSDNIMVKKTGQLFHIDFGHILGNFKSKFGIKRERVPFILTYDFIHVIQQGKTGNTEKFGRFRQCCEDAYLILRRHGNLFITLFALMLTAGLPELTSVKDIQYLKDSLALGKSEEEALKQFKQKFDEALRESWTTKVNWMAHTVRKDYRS
T1 sequence (P27986 whole entry partner): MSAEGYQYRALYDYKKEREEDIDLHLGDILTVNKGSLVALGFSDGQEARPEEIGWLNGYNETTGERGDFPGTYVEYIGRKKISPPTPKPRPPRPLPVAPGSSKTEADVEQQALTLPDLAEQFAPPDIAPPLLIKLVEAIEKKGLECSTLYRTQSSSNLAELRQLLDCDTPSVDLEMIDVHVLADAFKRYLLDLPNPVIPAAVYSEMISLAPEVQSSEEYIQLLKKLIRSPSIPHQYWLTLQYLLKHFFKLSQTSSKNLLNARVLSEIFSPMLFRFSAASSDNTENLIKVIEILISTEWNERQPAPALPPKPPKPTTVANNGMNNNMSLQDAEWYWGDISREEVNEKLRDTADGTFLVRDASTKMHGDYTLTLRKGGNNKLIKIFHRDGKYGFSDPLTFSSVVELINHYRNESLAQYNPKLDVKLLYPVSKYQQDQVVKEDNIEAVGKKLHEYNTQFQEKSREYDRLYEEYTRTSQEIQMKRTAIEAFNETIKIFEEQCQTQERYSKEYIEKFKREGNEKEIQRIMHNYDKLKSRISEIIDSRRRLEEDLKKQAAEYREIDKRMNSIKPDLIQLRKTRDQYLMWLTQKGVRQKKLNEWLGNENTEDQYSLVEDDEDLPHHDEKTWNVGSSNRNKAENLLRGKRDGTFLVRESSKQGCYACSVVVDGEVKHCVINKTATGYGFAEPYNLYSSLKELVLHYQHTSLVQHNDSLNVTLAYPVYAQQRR
T3 sequence (P48736 whole entry): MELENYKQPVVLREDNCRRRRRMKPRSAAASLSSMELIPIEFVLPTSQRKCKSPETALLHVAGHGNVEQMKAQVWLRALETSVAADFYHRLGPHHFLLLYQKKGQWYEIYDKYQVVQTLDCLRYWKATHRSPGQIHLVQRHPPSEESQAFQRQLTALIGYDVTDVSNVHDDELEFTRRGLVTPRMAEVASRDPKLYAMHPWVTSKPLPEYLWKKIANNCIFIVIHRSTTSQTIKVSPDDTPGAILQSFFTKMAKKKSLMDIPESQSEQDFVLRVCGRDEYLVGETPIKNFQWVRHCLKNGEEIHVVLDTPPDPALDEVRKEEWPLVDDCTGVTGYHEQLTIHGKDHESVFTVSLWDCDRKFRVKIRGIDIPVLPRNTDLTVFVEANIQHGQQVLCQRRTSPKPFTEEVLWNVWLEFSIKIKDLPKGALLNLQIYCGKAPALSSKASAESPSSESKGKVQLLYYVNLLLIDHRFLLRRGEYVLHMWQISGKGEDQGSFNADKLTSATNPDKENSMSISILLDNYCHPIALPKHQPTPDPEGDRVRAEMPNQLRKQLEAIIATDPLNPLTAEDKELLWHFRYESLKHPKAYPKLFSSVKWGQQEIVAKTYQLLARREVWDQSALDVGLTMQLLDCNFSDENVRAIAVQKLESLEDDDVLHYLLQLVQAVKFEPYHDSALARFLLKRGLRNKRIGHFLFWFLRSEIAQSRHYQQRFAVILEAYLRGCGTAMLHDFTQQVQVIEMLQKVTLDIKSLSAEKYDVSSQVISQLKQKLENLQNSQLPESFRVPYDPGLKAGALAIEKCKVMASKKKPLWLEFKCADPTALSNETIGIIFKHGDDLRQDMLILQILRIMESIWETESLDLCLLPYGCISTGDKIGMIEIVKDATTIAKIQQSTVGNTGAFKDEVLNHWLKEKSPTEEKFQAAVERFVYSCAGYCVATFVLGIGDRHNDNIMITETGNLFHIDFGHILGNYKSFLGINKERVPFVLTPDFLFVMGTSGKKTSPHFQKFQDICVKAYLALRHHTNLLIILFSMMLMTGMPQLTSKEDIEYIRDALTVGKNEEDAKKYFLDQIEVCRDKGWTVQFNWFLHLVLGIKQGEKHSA
T4 sequence (P42336 whole entry): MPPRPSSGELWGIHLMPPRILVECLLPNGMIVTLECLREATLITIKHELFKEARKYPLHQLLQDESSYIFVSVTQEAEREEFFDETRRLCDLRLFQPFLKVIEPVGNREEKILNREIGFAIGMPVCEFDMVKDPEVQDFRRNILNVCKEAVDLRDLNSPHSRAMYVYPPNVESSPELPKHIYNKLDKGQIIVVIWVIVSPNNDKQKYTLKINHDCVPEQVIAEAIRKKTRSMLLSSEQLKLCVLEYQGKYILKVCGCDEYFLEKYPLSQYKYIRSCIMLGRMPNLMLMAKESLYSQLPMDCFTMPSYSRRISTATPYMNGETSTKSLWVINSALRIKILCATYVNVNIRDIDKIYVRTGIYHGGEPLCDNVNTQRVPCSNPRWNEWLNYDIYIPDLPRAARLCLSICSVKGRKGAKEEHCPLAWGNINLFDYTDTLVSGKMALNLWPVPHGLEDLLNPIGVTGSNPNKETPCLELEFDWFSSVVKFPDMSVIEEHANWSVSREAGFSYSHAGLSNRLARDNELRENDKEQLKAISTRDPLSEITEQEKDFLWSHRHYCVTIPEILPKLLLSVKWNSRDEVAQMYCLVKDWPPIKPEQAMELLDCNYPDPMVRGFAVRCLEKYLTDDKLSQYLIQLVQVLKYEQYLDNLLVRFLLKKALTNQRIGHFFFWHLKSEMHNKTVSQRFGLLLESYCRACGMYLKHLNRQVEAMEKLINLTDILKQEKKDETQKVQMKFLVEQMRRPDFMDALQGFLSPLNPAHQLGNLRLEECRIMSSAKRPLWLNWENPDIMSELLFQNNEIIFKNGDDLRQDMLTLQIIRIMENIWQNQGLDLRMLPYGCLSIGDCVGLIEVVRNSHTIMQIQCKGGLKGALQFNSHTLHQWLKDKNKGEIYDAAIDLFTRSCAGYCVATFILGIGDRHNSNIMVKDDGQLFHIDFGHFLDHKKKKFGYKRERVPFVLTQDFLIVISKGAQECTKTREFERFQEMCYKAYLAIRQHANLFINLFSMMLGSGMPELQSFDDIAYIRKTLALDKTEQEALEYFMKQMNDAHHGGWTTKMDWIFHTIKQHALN
T4 sequence (P27986 whole entry partner): as the sequence (P27986 whole entry partner) above
T2 sequence (O00329 whole entry): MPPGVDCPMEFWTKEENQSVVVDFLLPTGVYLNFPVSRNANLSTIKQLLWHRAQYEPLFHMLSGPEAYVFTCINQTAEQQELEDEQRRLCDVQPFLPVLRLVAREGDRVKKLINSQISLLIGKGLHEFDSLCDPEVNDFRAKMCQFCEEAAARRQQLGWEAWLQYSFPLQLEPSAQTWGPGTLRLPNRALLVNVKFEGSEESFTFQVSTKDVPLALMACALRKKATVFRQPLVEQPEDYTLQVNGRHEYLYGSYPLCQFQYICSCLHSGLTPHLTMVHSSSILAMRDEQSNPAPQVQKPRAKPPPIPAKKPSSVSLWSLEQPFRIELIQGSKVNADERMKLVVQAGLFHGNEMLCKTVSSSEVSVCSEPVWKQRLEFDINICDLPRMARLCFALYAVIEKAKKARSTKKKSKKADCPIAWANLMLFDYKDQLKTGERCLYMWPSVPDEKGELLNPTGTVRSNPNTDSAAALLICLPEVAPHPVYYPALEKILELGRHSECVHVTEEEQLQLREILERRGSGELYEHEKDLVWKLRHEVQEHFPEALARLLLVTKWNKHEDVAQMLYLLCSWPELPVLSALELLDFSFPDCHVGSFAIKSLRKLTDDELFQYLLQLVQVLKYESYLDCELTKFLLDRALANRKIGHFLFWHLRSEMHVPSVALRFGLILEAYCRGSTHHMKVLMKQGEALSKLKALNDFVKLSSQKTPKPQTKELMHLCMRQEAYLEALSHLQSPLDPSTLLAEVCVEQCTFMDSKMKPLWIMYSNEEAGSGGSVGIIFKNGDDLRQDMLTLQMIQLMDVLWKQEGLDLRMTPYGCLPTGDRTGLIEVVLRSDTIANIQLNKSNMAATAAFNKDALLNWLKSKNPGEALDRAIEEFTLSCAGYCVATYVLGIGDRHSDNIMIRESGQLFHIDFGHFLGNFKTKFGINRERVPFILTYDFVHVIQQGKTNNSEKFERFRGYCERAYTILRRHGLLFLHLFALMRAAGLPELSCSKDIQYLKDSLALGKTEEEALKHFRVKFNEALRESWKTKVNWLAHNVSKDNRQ
T2 sequence (P27986 whole entry partner): as the sequence (P27986 whole entry partner) above

| Structure (SMILES) | IC50 [1] | IC50 [2] | IC50 [3] | IC50 [4] | IC50 [6] | IC50 [7] | effect on the body weight of rats ([5]; 14 days, FIG. 1a) | paw swelling as compared with the vehicle group ([5]; after 14 days of administration, FIG. 1b) |
| --- | --- | --- | --- | --- | --- | --- | --- | --- |
| COc1ccc(-c2nn(C(C)c3nc4cccc(F)c4c(=O)n3C3CCC3)c3ncnc(N)c23)cc1F (centres unmarked) [Compound 1, 2-(1-(4-amino-3-(3-fluoro-4-methoxyphenyl)-1H-pyrazolo [3,4-d]pyrimidin-1-yl)ethyl)-3-cyclobutyl-5-fluoroquinazolin-4(3H)-one] | 2.96 µM | 0.0274 µM | 4.09 µM | 7.41 µM |  |  |  |  |
| COc1ccc(-c2nn(C(C)c3nc4cccc(F)c4c(=O)n3C3CCCC3)c3ncnc(N)c23)cc1F (centres unmarked) [Compound 5, 2-(1-(4-amino-3-(3-fluoro-4-methoxyphenyl)-1H-pyrazolo [3,4-d]pyrimidin-1-yl)ethyl)-3-cyclopentyl-5-fluoroquinazolin-4(3H)-one] | > 10 µM | 0.0186 µM | 1.72 µM | 5.52 µM |  |  |  |  |
| CCC(c1nc2ccc(F)cc2c(=O)n1C1CC1)n1nc(-c2ccc(OC)c(F)c2)c2c(N)ncnc21 (centres unmarked) [Compound 23, 2-(1-(4-amino-3-(3-fluoro-4-methoxyphenyl)-1H-pyrazolo [3,4-d]pyrimidin-1-yl)propyl)-3-cyclopropyl-6-fluoroquinazolin-4(3H)-one] | 0.999 µM | 0.0095 µM | 0.922 µM | 6.44 µM |  |  |  |  |
| COc1ccc(-c2nn(C(C)c3nc4cccc(F)c4c(=O)n3C3CCC3)c3ncnc(N)c23)cc1OC (centres unmarked) [Compound 27, 2-(1-(4-amino-3-(3,4-dimethoxyphenyl)-1H-pyrazolo [3,4-d]pyrimidin-1-yl)ethyl)-3-cyclobutyl-5-fluoroquinazolin-4(3H)-one] |  | 0.0103 µM | 0.434 µM | 1.1 µM |  |  |  |  |
| COc1ccc(-c2nn(C(C)c3nc4ccccc4c(=O)n3C3CCC3)c3ncnc(N)c23)cc1 (centres unmarked) [Compound 37, 2-(1-(4-amino-3-(4-methoxyphenyl)-1H-pyrazolo [3,4-d]pyrimidin-1-yl)ethyl)-3-cyclobutylquinazolin-4(3H)-one] | 3.28 µM | 0.001 µM | 0.753 µM | 4.21 µM |  |  |  |  |
| COc1ccc(-c2nn(C(C)c3nc4ccccc4c(=O)n3C3CCC3)c3ncnc(N)c23)cc1OC (centres unmarked) [Compound 38, 2-(1-(4-amino-3-(3,4-dimethoxyphenyl)-1H-pyrazolo [3,4-d]pyrimidin-1-yl)ethyl)-3-cyclobutylquinazolin-4(3H)-one] | 0.581 µM | 0.00959 µM | 0.261 µM | 2.23 µM |  |  |  |  |
| CC[C@@H](c1nc2cccc(F)c2c(=O)n1C1CC1)n1nc(-c2ccc(OC)c(F)c2)c2c(N)ncnc21 [Compound 81, 2-((S)-1-(4-amino-3-(3-fluoro-4-methoxyphenyl)-1H-pyrazolo [3,4-d]pyrimidin-1-yl)propyl)-3-cyclopropyl-5-fluoroquinazolin-4(3H)-one] | 0.79 µM | 0.0164 µM | 0.471 µM |  |  |  |  |  |

Now from value to compound, other results behind:

| IC50 [1] | IC50 [2] | IC50 [3] | IC50 [4] | IC50 [6] | IC50 [7] | Structure (SMILES) | effect on the body weight of rats ([5]; 14 days, FIG. 1a) | paw swelling as compared with the vehicle group ([5]; after 14 days of administration, FIG. 1b) |
| --- | --- | --- | --- | --- | --- | --- | --- | --- |
| 0.523 µM | 0.031 µM | 0.299 µM | 1.69 µM |  |  | COc1ccc(-c2nn(Cc3nc4cccc(F)c4c(=O)n3C3CC3)c3ncnc(N)c23)cc1F [Compound 6, 2-((4-amino-3-(3-fluoro-4-methoxyphenyl)-1H-pyrazolo [3,4-d]pyrimidin-1-yl)methyl)-3-cyclopropyl-5-fluoroquinazolin-4(3H)-one] |  |  |
| 1.3 µM | 0.014 µM | 0.148 µM | 1.72 µM |  |  | COc1ccc(-c2nn(C(C)c3nc4cccc(F)c4c(=O)n3C3CC3)c3ncnc(N)c23)cc1F (centres unmarked) [Compound 8, 2-(1-(4-amino-3-(3-fluoro-4-methoxyphenyl)-1H-pyrazolo [3,4-d]pyrimidin-1-yl)ethyl)-3-cyclopropyl-5-fluoroquinazolin-4(3H)-one] |  |  |
| 1.16 µM | 0.0173 µM | 0.685 µM | 3.35 µM | > 10000 nM | 9960 nM | CCC(c1nc2cccc(F)c2c(=O)n1C1CC1)n1nc(-c2ccc(OC)c(F)c2)c2c(N)ncnc21 (centres unmarked) [Compound 9, 2-(1-(4-amino-3-(3-fluoro-4-methoxyphenyl)-1H-pyrazolo [3,4-d]pyrimidin-1-yl)propyl)-3-cyclopropyl-5-fluoroquinazolin-4(3H)-one] | no significant effect | significantly reduced |
| 0.27 µM | 0.0183 µM | 0.389 µM |  |  |  | CCC(c1nc2ccccc2c(=O)n1C1CC1)n1nc(-c2ccc(OC)c(F)c2)c2c(N)ncnc21 (centres unmarked) [Compound 11, 2-(1-(4-amino-3-(3-fluoro-4-methoxyphenyl)-1H-pyrazolo [3,4-d]pyrimidin-1-yl)propyl)-3-cyclopropylquinazolin-4(3H)-one] |  |  |
| > 10 µM | 0.0319 µM | > 10 µM |  |  |  | COc1ccc(-c2nn(C(C)c3nc4cccc(F)c4c(=O)n3C3CCCC3)c3ncnc(N)c23)cc1 (centres unmarked) [Compound 14, 2-(1-(4-amino-3-(4-methoxyphenyl)-1H-pyrazolo [3,4-d]pyrimidin-1-yl)ethyl)-3-cyclopentyl-5-fluoroquinazolin-4(3H)-one] |  |  |
| 0.547 µM | 0.0379 µM | 0.689 µM |  |  |  | COc1ccc(-c2nn(C(C)c3nc4cccc(F)c4c(=O)n3C3CCC3)c3ncnc(N)c23)cc1 (centres unmarked) [Compound 19, 2-(1-(4-amino-3-(4-methoxyphenyl)-1H-pyrazolo [3,4-d]pyrimidin-1-yl)ethyl)-3-cyclobutyl-5-fluoroquinazolin-4(3H)-one] |  |  |
| 0.344 µM | 0.0041 µM | 0.485 µM | 1.69 µM |  |  | COc1ccc(-c2nn(C(C)c3nc4ccc(F)cc4c(=O)n3C3CC3)c3ncnc(N)c23)cc1F (centres unmarked) [Compound 22, 2-(1-(4-amino-3-(3-fluoro-4-methoxyphenyl)-1H-pyrazolo [3,4-d]pyrimidin-1-yl)ethyl)-3-cyclopropyl-6-fluoroquinazolin-4(3H)-one] |  |  |
| 0.69 µM | 0.0083 µM | 0.576 µM | 3.77 µM |  |  | COc1ccc(-c2nn(C(C)c3nc4ccc(F)cc4c(=O)n3C3CC3)c3ncnc(N)c23)cc1 (centres unmarked) [Compound 42, 2-(1-(4-amino-3-(4-methoxyphenyl)-1H-pyrazolo [3,4-d]pyrimidin-1-yl)ethyl)-3-cyclopropyl-6-fluoroquinazolin-4(3H)-one] |  |  |
